Experimental data reported in patent US10881642B2, “Autophagy enhancer and use thereof” (Industry-Academic Cooperation Foundation, Yonsei University, priority 2016, dated 2021).

System: HeLa cells
Test: Viability of Hela cells
Format: cell-based
Settings: 50-100 μM, 48 hrs
Experimental: FIG. 10 is the result of the experiments using compound of formula 2 (hereinafter referred to as MSL-7) of the present disclosure as an autophagic enhancer. FIG. 10A is the result of immuneblot using the antibodies indicated using Hela cells treated with MSL or MSL-7. FIG. 10B is the result of measuring the viability of Hela cells treated with vehicle control or various concentration of MSL-7 (50-100 μM) for 48 hrs. FIG. 10C is the result of DAPI stained nuclei of TFEB-GFP HeLa cells which were treated with vehicle control or MSL-7 for 4 hrs. The graph indicates the percentage of TFEB translocated into the nuclei. Error bars, S.D. *, P<0.05; **, P<0.01; ***, P<0.001.
Screening of autophagy enhancer. […] Firefly luciferase was determined after mixing 5 μl of lysate with 25 μl of Luciferase Assay Reagent II. Renilla luciferase was then determined after further addition of 20 ul of Stop&Glo Reagent. […] Cytotoxicity was determined by the measurement of LDH release in cell culture media using the LDH kit (Roche), according to the protocol from the manufacturer. […] Imaging and image quantification. […] Formation of acidic vesicular organelles was quantitated by staining the cells with acridine orange (Invitrogen, 5 ug/ml, 10 min). […] Cells or tissues were solubilized in lysis buffer supplemented with protease and phosphatase inhibitors and protein concentration was measured by the Bradford method. […]

**Q.** With `COc1oc(-c2ccccc2Cl)nc1S(=O)(=O)c1ccccc1` [MSL-7, 2-(2-chlorophenyl)-5-methoxy-4-(phenylsulfonyl) oxazole] as the compound, how does the cellular toxicity read?
**A.** without cellular toxicity
